Results reported in PubChem BioAssay AID330 (DTP/NCI, 2004).
Where “and” joins values, the source holds several entries; their conditions need not be identical. Identical values can stand only once. Toxic doses and inconclusive results are not listed. Rule for the calls: active = survival T/C of 150% or more; inactive = T/C below 125% in these data.

Tested on: P388 leukemia ip, CD2F1 mice, survival T/C
Assay: NCI In Vivo Anticancer Drug Screen. Data for tumor model P388 Leukemia (intraperitoneal) in CD2F1 (CDF1) mice
Details: endpoint: median survival time, higher = longer survival
Summary of the method: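 Mice carrying the transplanted tumor received test compound or vehicle. Survival was recorded in each group, and the value is the treated-group measurement divided by that of the vehicle-treated control group.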

[1] = dose: 50.0 mg/kg/injection, schedule: Q01DX005 (ip), vehicle: saline with Tween-80
[2] = dose: 100.0 mg/kg/injection, schedule: Q01DX005 (ip), vehicle: saline with Tween-80
[3] = dose: 200.0 mg/kg/injection, schedule: Q01DX005 (ip), vehicle: saline with Tween-80
[4] = dose: 50.0 mg/kg/injection, schedule: Q01DX005 (ip), vehicle: Klucel (hydroxypropylcellulose) (HPC)
[5] = dose: 100.0 mg/kg/injection, schedule: Q01DX001 (ip), vehicle: saline with Tween-80
[6] = dose: 200.0 mg/kg/injection, schedule: Q01DX001 (ip), vehicle: saline with Tween-80
[7] = dose: 60.0 mg/kg/injection, schedule: Q01DX005 (ip), vehicle: saline
[8] = dose: 120.0 mg/kg/injection, schedule: Q01DX005 (ip), vehicle: saline
[9] = dose: 240.0 mg/kg/injection, schedule: Q01DX005 (ip), vehicle: saline
[10] = dose: 50.0 mg/kg/injection, schedule: Q01DX005 (ip), vehicle: saline
[11] = dose: 400.0 mg/kg/injection, schedule: Q01DX001 (ip), vehicle: saline with Tween-80

Measured: T/C

S1SSSSSSS1
inactive: dose: 8.0 mg/kg/injection, schedule: Q01DX005 (ip), vehicle: Klucel (hydroxypropylcellulose) (HPC) 103 % of control | dose: 16.0 mg/kg/injection, schedule: Q01DX005 (ip), vehicle: Klucel (hydroxypropylcellulose) (HPC) 106 % of control | dose: 32.0 mg/kg/injection, schedule: Q01DX005 (ip), vehicle: Klucel (hydroxypropylcellulose) (HPC) 104 % of control | dose: 64.0 mg/kg/injection, schedule: Q01DX005 (ip), vehicle: Klucel (hydroxypropylcellulose) (HPC) 100 % of control

CN(C)c1ccc2ccc(=O)[nH]c2c1
inactive: [1] 95 % of control | [2] 108 % of control | [3] 99 % of control

O=c1[nH]c(=O)n(C2OC(CF)C(O)C2O)cc1Br (stereo not drawn)
inactive: [4] 96 % of control | dose: 100.0 mg/kg/injection, schedule: Q01DX005 (ip), vehicle: Klucel (hydroxypropylcellulose) (HPC) 96 % of control | dose: 200.0 mg/kg/injection, schedule: Q01DX005 (ip), vehicle: Klucel (hydroxypropylcellulose) (HPC) 98 % of control

O=c1[nH]c(=O)c2ncsc2[nH]1
inactive: dose: 25.0 mg/kg/injection, schedule: Q01DX001 (ip), vehicle: saline with Tween-80 100 % of control | dose: 50.0 mg/kg/injection, schedule: Q01DX001 (ip), vehicle: saline with Tween-80 100 % of control and 104 % of control | [5] 100 % of control and 113 % of control | [6] 118 % of control

CC(=O)N(C)c1ccc(Nc2cc(S(=O)(=O)O)c(N)c3c2C(=O)c2ccccc2C3=O)cc1
inactive: [7] 98 % of control | [8] 100 % of control | [9] 90 % of control

CC(CC(C)C1CO1)C(=O)C(C)S(=O)(=O)c1ccccc1 (stereo not drawn) (tested in a mixture with another compound)
inactive: [1] 104 % of control | [2] 88 % of control | [3] 102 % of control

COc1ccc(-c2cc3cc(OC)c(OC)cc3c(-c3ccccc3)n2)cc1OC
inactive: dose: 60.0 mg/kg/injection, schedule: Q01DX005 (ip), vehicle: saline with Tween-80 98 % of control | dose: 120.0 mg/kg/injection, schedule: Q01DX005 (ip), vehicle: saline with Tween-80 95 % of control | dose: 240.0 mg/kg/injection, schedule: Q01DX005 (ip), vehicle: saline with Tween-80 90 % of control

O=C(NCN1CCOCC1)c1ccccc1O
inactive: dose: 100.0 mg/kg/injection, schedule: Q04DX002 (ip), vehicle: saline with Tween-80 98 % of control | dose: 200.0 mg/kg/injection, schedule: Q04DX002 (ip), vehicle: saline with Tween-80 104 % of control

Cc1ccc(SC(F)(F)C(F)C(F)(F)F)cc1 (stereo not drawn)
inactive: [10] 98 % of control | dose: 100.0 mg/kg/injection, schedule: Q01DX005 (ip), vehicle: saline 101 % of control | dose: 200.0 mg/kg/injection, schedule: Q01DX005 (ip), vehicle: saline 100 % of control

NN1C(=O)c2cccc3cccc(c23)C1=O
inactive: dose: 3.13 mg/kg/injection, schedule: Q01DX009 (ip), vehicle: saline with Tween-80 105 % of control | dose: 6.25 mg/kg/injection, schedule: Q01DX009 (ip), vehicle: saline with Tween-80 100 % of control | dose: 12.5 mg/kg/injection, schedule: Q01DX009 (ip), vehicle: saline with Tween-80 100 % of control | dose: 25.0 mg/kg/injection, schedule: Q01DX009 (ip), vehicle: saline with Tween-80 105 % of control

Cc1ccc(-c2c(Br)c(OC(=O)CO[C@@H]3C[C@H](C)CC[C@H]3C(C)C)c(-c3ccc(C)cc3C)c(Br)c2OC(=O)CO[C@H]2C[C@@H](C)CC[C@@H]2C(C)C)c(C)c1
inactive: [1] 95 % of control | [2] 88 % of control | [3] 88 % of control

O=C1C(c2[nH]c3cccc(Cl)c3c2O)=Nc2cccc(Cl)c21
inactive: [1] 100 % of control | [2] 104 % of control | [3] 109 % of control

O=c1c2ccccc2sc2c(CO)ccc(NCCCN3CCN(CCCNc4ccc(CO)c5sc6ccccc6c(=O)c45)CC3)c12
inactive: dose: 0.67 mg/kg/injection, schedule: Q01DX005 (ip), vehicle: saline with Tween-80 93 % of control | dose: 1.25 mg/kg/injection, schedule: Q01DX005 (ip), vehicle: saline with Tween-80 104 % of control | dose: 2.5 mg/kg/injection, schedule: Q01DX005 (ip), vehicle: saline with Tween-80 107 % of control | dose: 5.0 mg/kg/injection, schedule: Q01DX005 (ip), vehicle: saline with Tween-80 95 % of control | dose: 10.0 mg/kg/injection, schedule: Q01DX005 (ip), vehicle: saline with Tween-80 104 % of control | dose: 20.0 mg/kg/injection, schedule: Q01DX005 (ip), vehicle: saline with Tween-80 94 % of control | dose: 40.0 mg/kg/injection, schedule: Q01DX005 (ip), vehicle: saline with Tween-80 86 % of control and 95 % of control | dose: 80.0 mg/kg/injection, schedule: Q01DX005 (ip), vehicle: saline with Tween-80 90 % of control

COc1nc(NC2OC(COC(C)=O)C(OC(C)=O)C(OC(C)=O)C2OC(C)=O)c2c(O)coc2n1 (stereo not drawn)
inactive: [5] 115 % of control | [6] 106 % of control | [11] 92 % of control

BrCc1cccnc1
inactive: dose: 12.5 mg/kg/injection, schedule: Q01DX005 (ip), vehicle: saline 103 % of control | dose: 25.0 mg/kg/injection, schedule: Q01DX005 (ip), vehicle: saline 103 % of control | [10] 103 % of control and 110 % of control

O/N=C/C(=NCc1ccccn1)NO
inactive: dose: 60.0 mg/kg/injection, schedule: Q01DX005 (ip), vehicle: Klucel (hydroxypropylcellulose) (HPC) 107 % of control | dose: 120.0 mg/kg/injection, schedule: Q01DX005 (ip), vehicle: Klucel (hydroxypropylcellulose) (HPC) 103 % of control | dose: 240.0 mg/kg/injection, schedule: Q01DX005 (ip), vehicle: Klucel (hydroxypropylcellulose) (HPC) 103 % of control

CSc1ncc(/C(C)=N\N=C(N)N)c(C)n1
inactive: dose: 15.0 mg/kg/injection, schedule: Q01DX005 (ip), vehicle: saline 103 % of control and 97 % of control | dose: 30.0 mg/kg/injection, schedule: Q01DX005 (ip), vehicle: saline 93 % of control and 98 % of control | [7] 94 % of control and 97 % of control | [8] 99 % of control

CC(C)NC(=O)c1ccc(CN(O)Cc2ccc(C(=O)NC(C)C)cc2)cc1
inactive: dose: 25.0 mg/kg/injection, schedule: Q01DX009 (ip), vehicle: other 99 % of control | dose: 50.0 mg/kg/injection, schedule: Q01DX009 (ip), vehicle: other 99 % of control | dose: 100.0 mg/kg/injection, schedule: Q01DX009 (ip), vehicle: other 88 % of control | dose: 400.0 mg/kg/injection, schedule: Q01DX009 (ip), vehicle: other 97 % of control

OC1C[n+]2cc3ccccn3c2-c2cccc[n+]21 (stereo not drawn)
inactive: dose: 12.5 mg/kg/injection, schedule: Q01DX009 (ip), vehicle: saline 94 % of control | dose: 25.0 mg/kg/injection, schedule: Q01DX009 (ip), vehicle: saline 97 % of control | dose: 50.0 mg/kg/injection, schedule: Q01DX009 (ip), vehicle: saline 100 % of control

CCCCOCN(COCCCC)c1ccccc1
inactive: [5] 104 % of control | [6] 113 % of control | [11] 109 % of control

Cc1ccc(NC(=O)NCc2ccncc2)cc1NC(=O)NCc1ccncc1
inactive: dose: 50.0 mg/kg/injection, schedule: Q01DX009 (ip), vehicle: Klucel (hydroxypropylcellulose) (HPC) 112 % of control | dose: 100.0 mg/kg/injection, schedule: Q01DX009 (ip), vehicle: Klucel (hydroxypropylcellulose) (HPC) 110 % of control

CC(C)N(c1cc(=O)nc2ccccn12)C(C)C
inactive: [7] 101 % of control | [8] 98 % of control | [9] 100 % of control

COc1cccc(/C=N/NC(=S)Nc2cc(C(F)(F)F)cc(C(F)(F)F)c2)c1O
inactive: dose: 25.0 mg/kg/injection, schedule: Q01DX005 (ip), vehicle: Klucel (hydroxypropylcellulose) (HPC) 93 % of control | [4] 100 % of control and 93 % of control

CCCCCCCCCCCCCCCCCC[N+]1([O-])CCCC1
inactive: dose: 50.0 mg/kg/injection, schedule: Q01DX009 (ip), vehicle: water 93 % of control

NC(=O)C(Cl)Cl
inactive: dose: 100.0 mg/kg/injection, schedule: Q04DX002 (ip), vehicle: saline 108 % of control | dose: 200.0 mg/kg/injection, schedule: Q04DX002 (ip), vehicle: saline 100 % of control | dose: 400.0 mg/kg/injection, schedule: Q04DX002 (ip), vehicle: saline 100 % of control

CC(C)(C)N=C(CCNC1CCCCC1)Nc1ccccc1Cl
inactive: dose: 50.0 mg/kg/injection, schedule: Q01DX009 (ip), vehicle: saline with Tween-80 100 % of control | dose: 100.0 mg/kg/injection, schedule: Q01DX009 (ip), vehicle: saline with Tween-80 109 % of control | dose: 200.0 mg/kg/injection, schedule: Q01DX009 (ip), vehicle: saline with Tween-80 101 % of control
